Laboratory results from article PMC3894558, “Chemical signatures and new drug targets for gametocytocidal drug development” (Scientific Reports, 2014).
Where two headings read alike, the source gives them in different places.

How the values were obtained:
Type in all cases: cell-based, Plasmodium falciparum
[1] = tested on: P. falciparum Dd2 gametocytes; experiment: alamarBlue gametocyte viability assay, strain Dd2; conditions: Plasmodium falciparum, DD2, strain profiling; 11 concentrations, 1:3 dilution, three times; read-out: Dd2-gametocytes IC50
Protocol: Briefly, gametocyte cultures were set up at 0.1% parasitemia and on days 9–10 treated with 50 mM N-acetylglucosamine (NAG) to block further asexual growth. Stage III–V gametocytes were isolated by Percoll density gradient centrifugation on day 12 and returned to culture for 24 hrs before being used in the assay[9].
Briefly, 2.5 μl/well incomplete medium was dispensed into each well of 1,536-well plates using the Multidrop Combi followed by 23 nl compound transferring using the NX-TR Pintool (WAKO Scientific Solutions, San Diego, CA). Then, 2.5 μl/well of gametocytes was dispensed with a seeding density of 20,000 cells/well using the Multidrop Combi. The assay plates were incubated for 72 hrs at 37°C with 5% CO2.

[2] = tested on: P. falciparum HB3 gametocytes; experiment: alamarBlue gametocyte viability assay, strain HB3; conditions: Plasmodium falciparum, HB3, strain profiling; 11 concentrations, 1:3 dilution, three times; read-out: HB3-gametocytes IC50
[3] = tested on: P. falciparum 3D7 gametocytes; experiment: alamarBlue gametocyte viability assay, strain 3D7; conditions: for Max Resp: DMSO set at 0%, 100 nM epoxomicin set at -100%
[4] = Malaria Box, stages III-V 3D7 gametocytes
[5] = Malaria Box, stages III-V 3D7 gametocytes, 11 concentrations, 1:3 dilution, read-out: IC50
[6] = Malaria Box, stages III-V 3D7 gametocytes, 11 concentrations, 1:3 dilution

| Compound | Max Resp ([3]; Malaria Box) [%] | Curve Class [3, 4] | IC50 [3, 5] [µM] | IC50 [3, 6] | further results |
| --- | --- | --- | --- | --- | --- |
| c1cnc2c(c1)ccc1cccnc12 [1,10-Phenanthroline] | – | – | – | – | IC50 [1]: 1.32 µM; IC50 [2]: 1.18 µM; IC50 ([3]; Plasmodium falciparum, 3D7, read-out: 3D7-gametocytes IC50, strain profiling, 11 concentrations, 1:3 dilution, three times): 0.743 µM |
| OC(Cn1nnc2ccccc21)Cn1c2ccc(Br)cc2c2cc(Br)ccc21 (stereo not drawn) [MMV666025] | -60 | -2.2 | 37.2 | – | – |
| COc1ccc(-c2cc3c(nn2)-c2ccccc2C3=O)cc1 [MMV666026] | 0 | 4 | – | Inactive | – |
| COc1ccc(C(=O)NC(c2ccc(Cl)cc2Cl)c2cc(Cl)c3cccnc3c2O)cc1 (stereo not drawn) [MMV666054] | -125 | -2.1 | 16.6 | – | – |
| O=C(Nc1ccc(Cl)cc1C(=O)Nc1ccncc1)c1ccc(Cl)cc1Cl [MMV666057] | -57 | -2.2 | 29.6 | – | – |
| COc1ccc(CN2CCCC(C(=O)c3ccc(C(F)(F)F)cc3)C2)c(O)c1 (stereo not drawn) [MMV666060] | -45 | -1.2 | 1.05 | – | – |
| COc1cccc(O)c1CN1CCC2(CCCN(Cc3ccc(F)cc3)C2)C1 (stereo not drawn) [MMV666061] | -57 | -1.2 | 1.66 | – | – |
| Cc1ccc(N2C(=O)C3C(C2=O)C2(c4ccccc4)C(=O)C3(c3ccccc3)C(c3ccccc3)=C2c2ccccc2)cc1 (stereo not drawn) [MMV666062] | 12 | 4 | – | Inactive | – |
| COc1ccc(CNC2CCN(c3ccc(NC(=O)c4cccc(Cl)c4)cc3)CC2)cc1OC [MMV666067] | -95 | -2.1 | 14.8 | – | – |
| COc1ccc(CCN2CCC(CN(C)Cc3cnn(-c4ccccc4)c3)CC2)cc1 [MMV666069] | -86 | -2.1 | 10.5 | – | – |
| O=C(NC1CCCC1)c1ccc(N2CCC(NCc3cccc(C(F)(F)F)c3)CC2)cc1 [MMV666070] | -47 | -2.2 | – | Inactive | – |
| Cc1ccc(CN2CCC(C(=O)Nc3ccc(-c4cc5ccccc5[nH]4)cc3)CC2)o1 [MMV666071] | -71 | -2.2 | 29.6 | – | – |
| COCCNC(=O)c1ccc(OC2CCN(Cc3ccc(F)c(F)c3)CC2)c(Cl)c1 [MMV666072] | 12 | 4 | – | Inactive | – |
| COc1ccc(C2N(C)c3ccccc3N2C)cc1 [MMV666075] | -34 | -2.4 | – | Inactive | – |
| Cc1ccc2cc3c(N)c4c(C)ccc(C)c4nc3nc2c1 [MMV666079] | -81 | -2.1 | 16.6 | – | – |
| O=C(NC(c1ccccc1)c1ccc2cccnc2c1O)c1ccccc1 (stereo not drawn) [MMV666080] | -75 | -2.2 | 9.35 | – | – |
| CCCc1c(C)nc2ccccc2c1O [MMV666081] | 23 | 4 | – | Inactive | – |
| CCCC(c1nnnn1C1CCCCC1)N1CCN(C(=O)c2ccco2)CC1.Cl (stereo not drawn) [MMV666093] | -10 | 4 | – | Inactive | – |
| CCCc1c(C)nc2ccc(Br)cc2c1O [MMV666095] | 28 | 4 | – | Inactive | – |
| COc1ccc(C2=C(c3ccc(OC)cc3)C3(c4ccccc4)C(=O)C2(c2ccccc2)C2C(=O)N(c4ccc(C)cc4)C(=O)C23)cc1 (stereo not drawn) [MMV666101] | 1 | 4 | – | Inactive | – |
| CN(C)c1ccc(-c2nc3ccc(N)cc3[nH]2)cc1 [MMV666102] | -75 | -2.2 | 29.6 | – | – |
| CCn1c(SCC(=O)Nc2cc(C(F)(F)F)ccc2Cl)nc2ccccc2c1=O [MMV666103] | -11 | 4 | – | Inactive | – |
| COCCN(C(=O)Cc1cccs1)C(C(=O)NCc1ccc(OC)cc1)c1ccc(C(C)C)cc1 (stereo not drawn) [MMV666105] | -42 | -2.2 | – | Inactive | – |
| O=C(NC1CCCCC1)C(c1cccs1)N(CCc1ccccc1)C(=O)c1ccco1 (stereo not drawn) [MMV666106] | -29 | 4 | – | Inactive | – |
| O=C(CCc1ccco1)NC1CCN(CC2(c3ccc(Cl)cc3)CCC2)CC1 [MMV666108] | -51 | -2.2 | – | Inactive | – |
| CCOC(=O)C1(Cc2ccccc2)CCN(Cc2cccc(OC)c2O)CC1 [MMV666109] | -58 | -1.2 | 5.26 | – | – |
| C=C(C)CCC(C)N1CCC(N2CCC(C(=O)NCCc3ccccc3)CC2)CC1 (stereo not drawn) [MMV666110] | -73 | -2.2 | 29.6 | – | – |

| Compound | Max Resp ([3]; Malaria Box) [%] | Curve Class [3, 4] | IC50 [3, 5] [µM] | IC50 [3, 6] | further results |
| --- | --- | --- | --- | --- | --- |
| Oc1ccccc1CN1CCC2(CCCN(Cc3ccccc3F)C2)C1 (stereo not drawn) [MMV666116] | -46 | -1.2 | 0.662 | – | – |
| CC(C)(C)c1ccc(C(=O)Nc2c3c(nn2-c2cccc(Cl)c2)CSC3)cc1 [MMV666123] | -6 | 4 | – | Inactive | – |
| CC(=O)c1ccc(NC(=O)CSc2nc(-c3ccccc3Cl)ns2)cc1 [MMV666124] | -33 | -3 | – | Inactive | – |
| CC1=C(CC(=O)c2cccc([N+](=O)[O-])c2)C(=O)c2ccccc2C1=O [MMV666125] | -116 | -1.1 | 0.833 | – | reduction of gametocyte viability ([3]; Malaria Box screen): > 75%; IC50 ([3]; P. falciparum 3D7 gametocytes, mean of at least 3 independent experiments, read-out: Gametocyte IC50): < 1 µM |
| CSC1=NC(=Nc2c(C)cccc2C)C2(CCC(C(C)(C)C)CC2)N1c1ccc(Cl)cc1 (stereo not drawn) [MMV666596] | 14 | 4 | – | Inactive | – |
| CCCCCCc1cc2cc(-c3nc4ccccc4[nH]3)c(=Nc3ccccc3C)oc2cc1O [MMV666597] | -27 | -1.4 | 2.09 | – | – |
| O=c1nc(C=Cc2ccc(Br)cc2)oc2ccccc12 [MMV666599] | 4 | 4 | – | Inactive | – |
| CCOC(=O)c1c(C)n(-c2ccc(Cl)cc2)c2ccc(OC(=O)C=Cc3ccccc3)cc12 [MMV666600] | 2 | 4 | – | Inactive | – |
| CCOC(=O)C1=C(c2ccccc2)N=c2sc(=Cc3cc(C)n(-c4ccc(F)cc4)c3C)c(=O)n2C1c1cccc(OC)c1OC (stereo not drawn) [MMV666601] | -26 | 4 | – | Inactive | – |
| CCOC(=O)C1=C(C)N=c2sc(=Cc3ccccc3O)c(=O)n2C1c1ccc(OC)c2ccccc12 (stereo not drawn) [MMV666604] | -68 | -1.2 | 7.43 | – | – |
| O=[N+]([O-])c1ccc(C=NNc2nc3ccccc3[nH]2)cc1 [MMV666607] | -57 | -2.2 | 29.6 | – | – |
| COc1ccccc1C(=O)ON=C(N)Cc1cccc2ccccc12 [MMV666686] | -50 | -2.2 | – | Inactive | – |
| COc1cc(C(=O)ON=C(N)Cc2cccc3ccccc23)cc(OC)c1OC [MMV666687] | -100 | -2.1 | 14.8 | – | – |
| Cc1cc(C=C2SC(=Nc3ccccc3)N(C3CCCC3)C2=O)c(C)n1-c1ccc(Cl)cc1 [MMV666688] | -20 | 4 | – | Inactive | – |
| COc1ccc(Nc2nc(N/N=C/c3ccc(O)cc3)nc(Nc3ccc([N+](=O)[O-])cc3)n2)cc1 [MMV666689] | -64 | -1.2 | 6.62 | – | – |
| COc1ccc(C=C2SC(=N)N(c3ccccc3OC)C2=O)cc1 [MMV666691] | -7 | 4 | – | Inactive | – |
| CCCCCCc1cc2cc(-c3csc(C=Cc4ccccc4)n3)c(=O)oc2cc1O [MMV666692] | -54 | -2.2 | 29.6 | – | – |
| COc1cccc(C=Cc2nc(=O)c3ccccc3o2)c1OC [MMV666693] | 19 | 4 | – | Inactive | – |
| CCOc1ccc(N2C(N)=NC(N)=NC2(C)C)cc1.Cl [MMV667486] | -4 | 4 | – | Inactive | – |
| CN(C)c1ccc(N2C(N)=NC(N)=NC2(C)C)cc1 [MMV667487] | -4 | 4 | – | Inactive | – |
| COc1ccc(CCn2c(=N)c(C(=O)NCc3cccnc3)cc3c(=O)n4cccc(C)c4nc32)cc1 [MMV667488] | -32 | -1.2 | 2.64 | – | – |
| COC(=O)c1ccc(Cl)c2c1C1C=CCC1C(c1cccc3ccccc13)N2 (stereo not drawn) [MMV667489] | 1 | 4 | – | Inactive | – |
| COc1ccc(C2c3ccc4ccccc4c3Oc3ncn(CCCn4ccnc4)c(=N)c32)cc1OC (stereo not drawn) [MMV667490] | -79 | -1.1 | 4.18 | – | – |
| COc1ccc(C2c3ccc4ccccc4c3Oc3ncn(CCCN(C)C)c(=N)c32)cc1 (stereo not drawn) [MMV667491] | -95 | -1.1 | 2.64 | – | – |
| CN(N=O)C1=C(NC2CCCCC2)C(=O)c2ccccc2C1=O [MMV667492] | -59 | -1.2 | 2.35 | – | – |
| CCC(=O)N1CCN(c2ccc(-n3c(=O)ccc4cnc5ccc(-c6ccc(N)nc6)cc5c43)cc2C(F)(F)F)CC1 [WWH030] | – | – | – | – | IC50 ([3]; Plasmodium falciparum, 3D7, 3D7 gametocytes, stages III-V, high throughput viability assay, read-out: IC50 against gametocytes): 0.009 µM |
